Test results taken from patent publication US11072632B2, “Inhibitors of 17β-HSD1, 17β-HSD3 and 17β-HSD10” (UNIVERSITÉ LAVAL, priority 2011, dated 2021).
Entries after “also recorded” stand apart in the source; their conditions may differ.

What was measured:
[1] = system: ovariectomized (OVX) BALB/c mice; assay: In vivo estrogenicity assay in OVX mice (uterus, vagina weight); parameters: species or system mouse; settings: 7 days; for weight of the uterus: OVX mice, s.c.
Method: Female ovariectomized (OVX) BALB/c mice weighing approximately 20 g were obtained from Charles-River, Inc. (St-Constant, Qc., Canada). The animals were housed 5 per cage. Groups of 5 mice were treated with E1 (0.02 μg in 8% EtOH/92% PG) or 17β-HSD1 inhibitor at 10, 50 and 250 μg (0.1 mL s.c.) daily for 7 days. Animals were killed 24 h after administration of the last dose of compound and uteri and vagina were removed, excised of fat and weighed. Total body weights of mice were also recorded.

17β-HSD2 = target: T1, 17β-HSD2 (Homo sapiens, UniProt P37059); assay type: cell-based; settings: 5 nM to 20 μM
T1 construct: expressed in transfected cells
T1 sequence (P37059 1-387): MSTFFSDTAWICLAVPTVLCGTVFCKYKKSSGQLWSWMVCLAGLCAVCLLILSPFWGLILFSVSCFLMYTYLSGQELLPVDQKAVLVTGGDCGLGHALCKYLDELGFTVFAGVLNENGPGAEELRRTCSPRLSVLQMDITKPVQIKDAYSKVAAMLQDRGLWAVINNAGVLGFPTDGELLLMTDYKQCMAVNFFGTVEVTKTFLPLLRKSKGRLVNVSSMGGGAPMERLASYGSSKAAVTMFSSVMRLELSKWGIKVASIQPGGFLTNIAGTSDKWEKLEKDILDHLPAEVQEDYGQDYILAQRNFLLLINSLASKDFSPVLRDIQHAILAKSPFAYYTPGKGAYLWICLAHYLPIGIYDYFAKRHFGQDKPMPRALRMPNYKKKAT
Method: Inhibition assays were performed using stable 17β-HSD2 HEK-293 transfected intact cells with 5000 cells per well using 24 well plates (Poirier et al. Mol. Cell. Endocrinol., 2001, 171, 119-128). The cells were incubated for 1 h at 37° C. in 1 mL of MEM medium steroid free with 60 nM C^14 estradiol.

T-47D cells = assay: Estrogenic (proliferative) activity on T-47D (ER+) cell line; assay type: cell-based, human; settings: 0.5, 1, 2.5 and 5 μM, 7 days
Method: Quantification of cell growth was determined by using CellTiter 96®Aqueous Solution Cell Proliferation Assay (Promega, Nepean, ON, Canada) following the manufacturer's instructions. T-47D cells were resuspended with the medium supplemented with insulin (50 ng/mL) and 5% dextran-coated charcoal treated FBS rather than 10% FBS to remove remaining hormones. Aliquots (100 μL) of the cell suspension were seeded in 96-well plates (3000 cells/well). After 48 h, the medium was changed with a new one containing an appropriate concentration of products to be tested and was replaced every 2 days. Cells have grown either in absence or presence of the compounds for 7 days. To determine the proliferative (estrogenic) activity, the estrogen-sensitive T-47D cells were grown in absence (basal cell proliferation was fixed as 100%) or presence of compounds to be tested at 0.5 to 10 μM. The potent estrogen E2 was used as a reference control. […] The cell proliferation without E1±inhibitor (control) was fixed as 100%. To determine the potential antiestrogenic activity of inhibitor Compound V, the T-47D (ER^+) cells were grown in the presence of estrogen E2 (0.1 nM) and pure antiestrogen EM-139 (0.5 μM) or inhibitor Compound V (0.5 μM). The cell proliferation without E2 and tested compounds (control) were fixed as 100%.

T-47D tumors = assay: Inhibition of E1-stimulated T-47D tumor growth in nude OVX mice (xenograft); assay type: in vivo, mouse
Method: Female OVX BALB/c athymic nude mice weighing approximately 20 g were obtained from Charles-River, Inc. (St-Constant, Qc., Canada). The animals were housed 5 per cage. […] T-47D tumor growth was stimulated using 0.1 μg of E1 s.c. per mouse per day for 15 days. From day 16, animals with tumors were randomized in function of tumor volume and separated into three groups. Group 1 (control mice) was treated s.c. with 100 μL of vehicle alone (8% EtOH/92% PG) per mouse per day. Group 2 (E1 0.1 μg) was treated with E1 (0.1 μg/day, s.c. per mouse) during 32 days. Group 3 (E1 0.1 μg+Compound V 250 μg) was treated with E1 (0.1 μg/day) and Compound V (250 μg/day) per mouse in a combined s.c. injection for 32 days. The mice were weighed at start and volumes of tumors were determined by external caliper twice a week and the greatest longitudinal diameter (length) and the greatest transverse diameter (width) were determined. Tumor volume based on caliper measurements was calculated by the modified ellipsoidal formula: Tumor volume=½(length×width^2) (Jensen M M, Jorgensen J T, Binderup T, Kjaer A. Tumor volume in subcutaneous mouse xenografts measured by microCT is more accurate and reproducible than determined by 18F-FDG-microPET or external caliper. BMC Med Imaging 2008; 8:16). At the end of the studies the mice were terminally anaesthetized, final body weights and tumor sizes were determined. Uteri and vagina were removed, excised of fat and weighed (Day J M, Foster P A, Tutill H J, Parsons M F, Newman S P, Chander S K, et al. 17beta-hydroxysteroid dehydrogenase type 1, and not type 12, is a target for endocrine therapy of hormone-dependent breast cancer. Int J Cancer 2008; 122:1931-40; Husen B, Huhtinen K, Poutanen M, Kangas L, Messinger J, Thole H. Evaluation of inhibitors for 17beta-hydroxysteroid dehydrogenase type 1 in vivo in immunodeficient mice inoculated with MCF-7 cells stably expressing the recombinant human enzyme. Mol Cell Endocrinol 2006; 248:109-13; Husen B, Huhtinen K, Saloniemi T, Messinger J, Thole H H, Poutanen M: Human hydroxysteroid (17-beta) dehydrogenase 1 expression enhances estrogen sensitivity of MCF-7 breast cancer cell xenografts. Endocrinology 2006; 147:5333-9; Messinger J, Hirvela L, Husen B, Kangas L, Koskimies P, Pentikainen O, et al. New inhibitors of 17beta-hydroxysteroid dehydrogenase type 1. Mol Cell Endocrinol 2006; 248:192-8).

C[C@]12CC[C@@H]3c4ccc(CCBr)cc4CC[C@H]3[C@@H]1C[C@H](Cc1cccc(C(N)=O)c1)[C@@H]2O [Compound V, 3-{[(16β,17β)-3-(2-bromoethyl)-17-hydroxyestra-1(10),2,4-trien-16-yl]methyl}benzamide]
estrogenicity in vivo ([1]; 10, 50 and 250 μg/mouse/day): non-estrogenic in vivo | weight of the uterus ([1]; 10 μg/mouse/day): 25 mg | weight of the uterus ([1]; 50 μg/mouse/day): 24 mg | weight of the uterus ([1]; 250 μg/mouse/day): 23 mg | inhibition of 17β-HSD2 (conversion of E2 to E1) (17β-HSD2): no inhibition; also recorded: did not show any inhibition | estrogenic (proliferative) activity on T-47D cells (T-47D cells): not estrogenic at any concentration tested | toxicity (T-47D tumors; 250 μg/day/mouse (s.c.), 32 days): no apparent toxicity | effect on mouse weight (T-47D tumors; 32-day treatment period): no effect | growth of E1-stimulated tumors inhibited (%) (T-47D tumors; E1 0.1 μg/day + Compound V 250 μg/day s.c., 32 days): 74% | effect on E1-stimulated uterine and vaginal weight (T-47D tumors; E1 0.1 μg/day + Compound V 250 μg/day, 32 days): had no effect on the E1-stimulated uterine and vaginal weight increase
